These results are taken from patent publication US5374649A, “Indole derivatives and pharmaceutical use thereof” (Glaxo S.p.A., priority 1992, dated 1994).

Experiment [1] has as its target T1, strychnine insensitive glycine binding site located on the NMDA receptor complex (Rattus norvegicus, UniProt P35439).
T1 construct: from tissue
The experiment can be described thus: affinity for strychnine insensitive glycine binding site (procedure of Kishimoto H. et al.). The note with it: procedure of Kishimoto H. et al. J. Neurochem 1981, 37, 1015-1024. As to the method:
The potent and selective action of the compounds of the invention at the strychnine- insensitive glycine binding site present on the NMDA receptor complex may be readily determined using conventional test procedures. Thus the ability to bind at the strychnine insensitive glycine binding site was determined using the procedure of Kishimoto H et al. J Neurochem 1981, 37 1015-1024. The selectivity of the action of compounds of the invention for the strychnine insensitive glycine site was confirmed in studies at other ionotropic known excitatory amino acid receptors.
The affinity of the compound of the invention for strychnine insensitvie glycine binding site was determined using the procedure of Kishimoto H. et al J. Neurochem 1981, 37, 1015-1024.

Experiment [2] concerns NMDA induced convulsions. The experiment is described as follows: inhibition of NMDA induced convulsions in mice (procedure of Chiamulera C et al.). The note with it: mouse; iv administration; intracerebroventricular injection of NMDA; read-out: ED50 (dose required to protect 50% of the animals from the convulsive action of NMDA). It is filed as in vivo. The procedure: The ability of compounds of the invention to inhibit NMDA included convulsions in the mouse was determined using the procedure of Chiamulera C et al. Psychopharmacology 1990, 102, 551-552. In this test the ability of the compound to inhibit the generalized seizures induced by an intracerebroventricular injection of NMDA in mice was examined at a number of dose levels. […] This expressed as mg/kg is referred to as the ED50 value.

Structures are written as SMILES.

`O=C(/C=C/c1c(C(=O)O)[nH]c2cc(Cl)cc(Cl)c12)Nc1ccccc1O` [Example 2e, (E) 3-[2-(2-Hydroxyphenylaminocarbonyl)ethenyl]-4,6-dichloroindole-2-carboxylic acid] displayed a pKi in experiment [1] of 8.4.

As to `O=C(/C=C/c1c(C(=O)O)[nH]c2cc(Cl)cc(Cl)c12)Nc1cc([N+](=O)[O-])ccc1O` [Example 2i], the pKi in experiment [1] is 8.0.

As to `CCOc1ccc(NC(=O)/C=C/c2c(C(=O)O)[nH]c3cc(Cl)cc(Cl)c23)cc1` [Example 2g, (E) 3-[2(4-Ethoxyphenylaminocarbonyl)ethenyl]-4,6-dichloroindole-2-carboxylic acid], the ED50 in experiment [2] was 0.1 mg/kg. This compound returned a pKi in experiment [1] of 8.3.

Take `COc1ccc(NC(=O)/C=C/c2c(C(=O)O)[nH]c3cc(Cl)cc(Cl)c23)cc1OC` [Example 2f, (E) 3-[2-(3,4-Dimethoxyphenylaminocarbonyl)ethenyl]-4,6-dichloroindole-2-carboxylic acid]: the ED50 in experiment [2] came to 0.3 mg/kg. The pKi in experiment [1] was found to be 8.1.

Take `O=C(/C=C/c1c(C(=O)O)[nH]c2cc(Cl)cc(Cl)c12)Nc1ccc(F)cc1F` [Example 2h, (E) 3-[2-(2,4-Difluorophenylaminocarbonyl)ethenyl]-4,6-dichloroindole-2-carboxylic acid]: the ED50 in experiment [2] was 0.3 mg/kg. In addition, the pKi in experiment [1] is 8.3.

For orientation: pKi means the negative decadic logarithm of the Ki, by convention in mol/L. By ED50 is commonly meant the dose that gives a 50% effect, or the effect in half of the subjects.
